Test results from patent publication US11965159B2, “Compositions and methods for regulating proteins and nucleic acids activities” (THE BROAD INSTITUTE, INC., priority 2019, dated 2024).
Entries after “also recorded” stand apart in the source; their conditions may differ.

What was measured:
[1] = system: CRISPR-Cas9 based immunity in S. aureus RN4220; assay: Bacterial resistance study against phage (CRISPR immunity, OD600 growth curves); type: cell-based; conditions: 5-20 μM, 16 h, MOI 1
Description: Bacterial study. Plasmid pRH248 harboring SpCas9, tracrRNA and a single-spacer array ([…]) (SEQ ID NO:7) targeting phage DNM474 was constructed via BsaI cloning onto pDB114 as described in Heler et al 6. Plate reader growth curves of bacteria infected with phage were conducted as described previously with minor modifications 7. Overnight cultures were diluted 1:100 into 2 ml of fresh BHI supplemented with appropriate antibiotics and 5 mM CaCl2) and grown to an OD600 of ˜0.2. Immune cells carrying pRH248 were diluted with cells lacking CRISPR-Cas in a 1:10,000 ratio. Following a 15-minute pre-incubation with DMSO or with varying amounts of inhibitors (5-20 μM), the cultures were infected with DNM474 at an initial MOI of 1. To produce plate reader growth curves, 200 μL of infected cultures, normalized for OD600, were transferred to a 96-well plate in triplicate. OD600 measurements were collected every 10 minutes for 16 hours. Similarly, growth curves to evaluate the toxicity of the compounds at 20 μM (FIG. 32) were conducted on cultures lacking CRISPR in the absence of phage.
Bacterial study. […] Plate reader growth curves of bacteria infected with phage were conducted as described previously with minor modifications^7. […] To produce plate reader growth curves, 200 μL of infected cultures, normalized for OD600, were transferred to a 96-well plate in triplicate. […]

[2] = molecular target: SpCas9 (Streptococcus pyogenes serotype M1, UniProt Q99ZW2); assay: mCherry-GFP NHEJ assay; type: cell-based; design: host or cells: U2OS.eGFP-PEST; conditions: 2-10 μM, 24 h
Description: NHEJ assay. Approximately 8,000 cells/well were plated in a 96-well format 24 h before transiently transfected with a total 100 ng of DN66 (mCherry-TAG-GFP reporter) and DN78 (SpCas9 and gRNA) plasmids (1:1) using Lipofectamine™ 2000 (Life Technologies™) 3. Transfected cells were allowed to grow in the indicated amount of compound or DMSO for 24 h. Cells were then fixed using 4% paraformaldehyde and imaged with the HCS NuclearMask™ Blue Stain (Life Technologies™) as the nuclear counter-staining agent. Imaging was performed with an IXM 137204 ImageXpress® Automated High Content Microscope (Molecular Devices™) at 20× magnification under three excitation channels (blue, green and red) with 9 acquiring sites per well. Images were analyzed in the MetaXpress® software to determine the % NHEJ and the data were plotted using GraphPad Prism 6. The Z′-value was calculated following the formula:
NHEJ assay. Approximately 8,000 cells/well were plated in a 96-well format 24 h before transiently transfected with a total 100 ng of DN66 (mCherry-TAG-GFP reporter) and DN78 (SpCas9 and gRNA) plasmids (1:1) using Lipofectamine™ 2000 (Life Technologies™)^3. […] Images were analyzed in the MetaXpress® software to determine the % NHEJ and the data were plotted using GraphPad Prism 6. The Z′-value was calculated following the formula: […]

Sequence of SpCas9 (Q99ZW2 whole entry): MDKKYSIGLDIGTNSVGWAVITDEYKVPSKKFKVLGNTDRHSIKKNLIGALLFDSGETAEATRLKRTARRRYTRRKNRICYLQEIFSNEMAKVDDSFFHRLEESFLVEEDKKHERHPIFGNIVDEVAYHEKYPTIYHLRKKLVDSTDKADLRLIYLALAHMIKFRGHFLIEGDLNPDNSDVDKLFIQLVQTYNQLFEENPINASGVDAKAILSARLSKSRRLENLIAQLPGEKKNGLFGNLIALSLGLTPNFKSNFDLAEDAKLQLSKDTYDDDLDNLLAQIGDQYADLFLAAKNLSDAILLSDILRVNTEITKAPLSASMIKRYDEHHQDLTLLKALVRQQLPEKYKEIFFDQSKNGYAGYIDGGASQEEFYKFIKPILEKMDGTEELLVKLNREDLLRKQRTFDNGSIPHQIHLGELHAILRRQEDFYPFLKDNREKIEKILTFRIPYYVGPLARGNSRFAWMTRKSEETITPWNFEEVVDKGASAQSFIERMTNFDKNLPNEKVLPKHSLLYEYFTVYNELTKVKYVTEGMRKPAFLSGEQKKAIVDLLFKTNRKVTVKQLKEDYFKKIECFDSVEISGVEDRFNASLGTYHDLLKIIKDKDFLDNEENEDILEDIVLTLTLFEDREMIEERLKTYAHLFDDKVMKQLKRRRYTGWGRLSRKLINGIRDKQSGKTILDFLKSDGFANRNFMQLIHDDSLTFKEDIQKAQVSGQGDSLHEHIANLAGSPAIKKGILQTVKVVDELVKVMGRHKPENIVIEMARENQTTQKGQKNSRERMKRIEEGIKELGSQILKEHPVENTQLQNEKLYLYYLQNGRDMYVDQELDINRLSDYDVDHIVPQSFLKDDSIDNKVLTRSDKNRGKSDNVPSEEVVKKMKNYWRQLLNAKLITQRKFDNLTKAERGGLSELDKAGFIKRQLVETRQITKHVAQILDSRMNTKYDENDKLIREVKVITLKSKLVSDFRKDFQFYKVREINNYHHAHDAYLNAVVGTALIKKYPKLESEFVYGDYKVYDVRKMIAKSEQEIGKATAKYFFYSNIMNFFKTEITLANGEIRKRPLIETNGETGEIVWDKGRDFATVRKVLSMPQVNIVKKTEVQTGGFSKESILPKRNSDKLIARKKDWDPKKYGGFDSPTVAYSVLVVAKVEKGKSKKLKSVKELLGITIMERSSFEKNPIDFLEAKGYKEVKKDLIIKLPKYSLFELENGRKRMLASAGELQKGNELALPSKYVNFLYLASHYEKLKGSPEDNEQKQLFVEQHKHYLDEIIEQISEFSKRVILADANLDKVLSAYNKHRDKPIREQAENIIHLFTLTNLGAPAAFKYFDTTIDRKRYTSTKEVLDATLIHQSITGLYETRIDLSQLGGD

| Structure (SMILES) | blockage of CRISPR-Cas9 immunity (sensitization of immune bacteria to phage, OD600) [1] | inhibition of SpCas9-mediated NHEJ [2] |
| --- | --- | --- |
| COc1ccc(-c2ccc3c(c2)[C@H]2[C@H](CCN2Cc2ccncc2)[C@@H](CO)N3)cc1 [BRD5779, ((3aR,4S,9bR)-8-(4-Methoxyphenyl)-1-(pyridin-4-ylmethyl)-2,3,3a,4,5,9b-hexahydro-1H-pyrrolo[3,2-c]quinolin-4-yl)methanol] | dose-dependent blockage of CRISPR-Cas9 based immunity; also recorded: able to sensitize the immune bacterial cells against target phage in a dose-dependent manner | active; also recorded: Dose-dependent inhibition of SpCas9-mediated NHEJ |
| OC[C@H]1Nc2ccc(-c3cccc(F)c3)cc2[C@H]2[C@@H]1CCN2Cc1ccncc1 [BRD7087, ((3aR,4S,9bR)-8-(3-Fluorophenyl)-1-(pyridin-4-ylmethyl)-2,3,3a,4,5,9b-hexahydro-1H-pyrrolo[3,2-c]quinolin-4-yl)methanol] | dose-dependent blockage of CRISPR-Cas9 based immunity; also recorded: able to sensitize the immune bacterial cells against target phage in a dose-dependent manner; also recorded: higher activity | active; also recorded: Dose-dependent inhibition of SpCas9-mediated NHEJ |
